Legend:
downy brome = assay: Test C preemergence/postemergence greenhouse plant response rating 0 to 100; type: in vivo, Bromus tectorum; details: for Plant response rating Downy Brome: 0 to 100 scale
From the text: (§1) The compounds evaluated in this test were formulated in a non-phytoxic solvent and applied to the soil surface before plant seedlings emerged (preemergence application), to water that covered the soil surface (flood application), and to plants that were in the one-to-four leaf stage (postemergence application). A sandy loam soil was used for the preemergence and postemergence tests, while a silt loam soil was used in the flood test. Water depth was approximately 2.5 cm for the flood test and was maintained at this level for the duration of the test. Plant species in the preemergence and postemergence tests consisted of barley (Hordeum vulgare), bedstraw (Galium aparine), blackgrass (Alopecurus myosuroides), chickweed (Stellaria media), corn (Zea mays), cotton (Gossypium hirsutum), crabgrass (Digitaria sanguinalis), downy brome (Bromus tectorum), giant foxtail (Setaria faberii), lambsquarters (Chenopodium album), morningglory (Ipomoea hederacea), pigweed ([…]), rape (Brassica napus), ryegrass (Lolium multiflorum), sorghum (Sorghum bicolor), soybean (Glycine max), speedwell (Veronica persica), sugar beet (Beta vulgaris), velvetleaf (Abutilon theophrasti), wheat (Triticum aestivum), wild buckwheat (Polygonum convolvulus), and wild oat (Avena fatua). All plant species were planted one day before application of the compound for the preemergence portion-of this test. Plantings of these species were adjusted to produce plants of appropriate size for the post-emergence portion of the test. […] All plant species were grown using normal greenhouse practices. Visual evaluations of injury expressed on treated plants, when compared to untreated controls, were recorded approximately fourteen to twenty one days after application of the test compound. […] A dash (-) response means no test result.

wild buckwheat [1] = assay: Test B preemergence/postemergence greenhouse plant response rating 0 to 10; type: in vivo, Polygonum convolvulus; details: 0 to 10 scale
Method in brief: (§2)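 Both application timings were run together: seeds got compound preemergence, and established seedlings (two to eighteen cm) got it postemergence. Non-phytotoxic solvent carried the chemical. Ratings are visual, versus controls, at twelve to sixteen days.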

rice = assay: as above; type: in vivo, Oryza sativa; details: 0 to 10 scale
Method in brief: as §2

wild buckwheat [2] = assay: Test C preemergence/postemergence greenhouse plant response rating 0 to 100; type: in vivo, Polygonum convolvulus; details: for Plant response rating, Wild buckwheat: 0 to 100 scale
From the text: as §1

wild oat = assay: Test B preemergence/postemergence greenhouse plant response rating 0 to 10; type: in vivo, Avena fatua; details: 0 to 10 scale
Method in brief: as §2

soybean = assay: as above; type: in vivo, Glycine max; details: 0 to 10 scale
Method in brief: as §2

blackgrass = assay: Test C preemergence/postemergence greenhouse plant response rating 0 to 100; type: in vivo, Alopecurus myosuroides; details: for Plant response rating, Blackgrass: 0 to 100 scale
From the text: as §1

lambsquarters = assay: Test B preemergence/postemergence greenhouse plant response rating 0 to 10; type: in vivo, Chenopodium album; details: 0 to 10 scale
Method in brief: as §2

wheat = assay: as above; type: in vivo, Triticum aestivum; details: 0 to 10 scale
Method in brief: as §2

sorghum = assay: Test C preemergence/postemergence greenhouse plant response rating 0 to 100; type: in vivo, Sorghum bicolor; details: for Plant response rating, Sorghum: 0 to 100 scale
From the text: as §1

sugar beet = assay: as above; type: in vivo, Beta vulgaris; details: for Plant response rating, Sugar beet: 0 to 100 scale
From the text: as §1

SMILES: C#CCN1C(=O)COc2cc(F)c(-c3nn4c(c3Br)CCCC4)cc21 [Compound 56]
- Plant response rating Downy Brome (downy brome; POSTEMERGENCE, 62 g/ha): 70
- Plant response rating (0 to 100), Downy Brome (downy brome; POSTEMERGENCE, Rate 1 g/ha): 40
- Plant response rating (0 to 100), Downy Brome (downy brome; POSTEMERGENCE, Rate 4 g/ha): 50
- Plant response rating (0 to 100), Downy Brome (downy brome; Rate 16 g/ha, POSTEMERGENCE): 60
- Plant response rating, Wild buckwheat (wild buckwheat [1]; POSTEMERGENCE, Rate 10 g/ha): 10
- Plant response rating, Wild buckwheat (wild buckwheat [1]; POSTEMERGENCE, Rate 50 g/ha): 10
- Plant response rating, Wild buckwheat (wild buckwheat [1]; PREEMERGENCE, Rate 50 g/ha): 9
- Plant response rating, Rice (rice; POSTEMERGENCE, Rate 10 g/ha): 3
- Plant response rating, Rice (rice; POSTEMERGENCE, Rate 50 g/ha): 4
- Plant response rating, Rice (rice; PREEMERGENCE, Rate 50 g/ha): 0
- Plant response rating, Wild buckwheat (wild buckwheat [2]; POSTEMERGENCE, 62 g/ha): 100
- Plant response rating (0 to 100), Wild buckwheat (wild buckwheat [2]; POSTEMERGENCE, Rate 1 g/ha): 100
- Plant response rating (0 to 100), Wild buckwheat (wild buckwheat [2]; POSTEMERGENCE, Rate 4 g/ha): 100
- Plant response rating (0 to 100), Wild buckwheat (wild buckwheat [2]; Rate 16 g/ha, POSTEMERGENCE): 100
- Plant response rating, Wild oat (wild oat; POSTEMERGENCE, Rate 10 g/ha): 6
- Plant response rating, Wild oat (wild oat; POSTEMERGENCE, Rate 50 g/ha): 6
- Plant response rating, Wild oat (wild oat; PREEMERGENCE, Rate 50 g/ha): 5
- Plant response rating, Soybean (soybean; POSTEMERGENCE, Rate 10 g/ha): 9
- Plant response rating, Soybean (soybean; POSTEMERGENCE, Rate 50 g/ha): 8
- Plant response rating, Soybean (soybean; PREEMERGENCE, Rate 50 g/ha): 0
- Plant response rating, Blackgrass (blackgrass; POSTEMERGENCE, 62 g/ha): 80
- Plant response rating (0 to 100), Blackgrass (blackgrass; POSTEMERGENCE, Rate 1 g/ha): 30
- Plant response rating (0 to 100), Blackgrass (blackgrass; POSTEMERGENCE, Rate 4 g/ha): 40
- Plant response rating (0 to 100), Blackgrass (blackgrass; Rate 16 g/ha, POSTEMERGENCE): 65
- Plant response rating, Lambsquarter (lambsquarters; POSTEMERGENCE, Rate 10 g/ha): 10
- Plant response rating, Lambsquarter (lambsquarters; POSTEMERGENCE, Rate 50 g/ha): 10
- Plant response rating, Lambsquarter (lambsquarters; PREEMERGENCE, Rate 50 g/ha): 10
- Plant response rating, Wheat (wheat; POSTEMERGENCE, Rate 10 g/ha): 7
- Plant response rating, Wheat (wheat; POSTEMERGENCE, Rate 50 g/ha): 7
- Plant response rating, Wheat (wheat; PREEMERGENCE, Rate 50 g/ha): 4
- Plant response rating, Sorghum (sorghum; POSTEMERGENCE, 62 g/ha): 60
- Plant response rating (0 to 100), Sorghum (sorghum; POSTEMERGENCE, Rate 1 g/ha): 20
- Plant response rating (0 to 100), Sorghum (sorghum; POSTEMERGENCE, Rate 4 g/ha): 30
- Plant response rating (0 to 100), Sorghum (sorghum; Rate 16 g/ha, POSTEMERGENCE): 50
- Plant response rating, Sugar beet (sugar beet; POSTEMERGENCE, 62 g/ha): 100
- Plant response rating (0 to 100), Sugar beet (sugar beet; POSTEMERGENCE, Rate 1 g/ha): 100
- Plant response rating (0 to 100), Sugar beet (sugar beet; POSTEMERGENCE, Rate 4 g/ha): 100
- Plant response rating (0 to 100), Sugar beet (sugar beet; Rate 16 g/ha, POSTEMERGENCE): 100

SMILES: CCCN1C(=O)COc2cc(F)c(-c3nn4c(c3Br)CCCC4)cc21 [Compound 63]
- Plant response rating Downy Brome (downy brome; PREEMERGENCE, 62 g/ha): 20
- Plant response rating Downy Brome (downy brome; PREEMERGENCE, 250 g/ha): 50
- Plant response rating (0 to 100), Downy Brome (downy brome; PREEMERGENCE, Rate 4 g/ha): 0
- Plant response rating (0 to 100), Downy Brome (downy brome; Rate 16 g/ha, PREEMERGENCE): 0
- Plant response rating, Wild buckwheat (wild buckwheat [1]; POSTEMERGENCE, Rate 10 g/ha): 9
- Plant response rating, Wild buckwheat (wild buckwheat [1]; POSTEMERGENCE, Rate 50 g/ha): 10
- Plant response rating, Wild buckwheat (wild buckwheat [1]; PREEMERGENCE, Rate 50 g/ha): 10
- Plant response rating, Rice (rice; POSTEMERGENCE, Rate 10 g/ha): 3
- Plant response rating, Rice (rice; POSTEMERGENCE, Rate 50 g/ha): 5
- Plant response rating, Rice (rice; PREEMERGENCE, Rate 50 g/ha): 0
- Plant response rating, Wild buckwheat (wild buckwheat [2]; PREEMERGENCE, 250 g/ha): 100
- Plant response rating (0 to 100), Wild buckwheat (wild buckwheat [2]; PREEMERGENCE, Rate 4 g/ha): 0
- Plant response rating (0 to 100), Wild buckwheat (wild buckwheat [2]; Rate 16 g/ha, PREEMERGENCE): 50
- Plant response rating, Wild oat (wild oat; POSTEMERGENCE, Rate 10 g/ha): 4
- Plant response rating, Wild oat (wild oat; POSTEMERGENCE, Rate 50 g/ha): 6
- Plant response rating, Wild oat (wild oat; PREEMERGENCE, Rate 50 g/ha): 3
- Plant response rating, Soybean (soybean; POSTEMERGENCE, Rate 10 g/ha): 6
- Plant response rating, Soybean (soybean; POSTEMERGENCE, Rate 50 g/ha): 5
- Plant response rating, Soybean (soybean; PREEMERGENCE, Rate 50 g/ha): 0
- Plant response rating, Blackgrass (blackgrass; PREEMERGENCE, 62 g/ha): 50
- Plant response rating, Blackgrass (blackgrass; PREEMERGENCE, 250 g/ha): 90
- Plant response rating (0 to 100), Blackgrass (blackgrass; PREEMERGENCE, Rate 4 g/ha): 10
- Plant response rating (0 to 100), Blackgrass (blackgrass; Rate 16 g/ha, PREEMERGENCE): 30
- Plant response rating, Lambsquarter (lambsquarters; POSTEMERGENCE, Rate 10 g/ha): 9
- Plant response rating, Lambsquarter (lambsquarters; POSTEMERGENCE, Rate 50 g/ha): 10
- Plant response rating, Lambsquarter (lambsquarters; PREEMERGENCE, Rate 50 g/ha): 10
- Plant response rating, Wheat (wheat; POSTEMERGENCE, Rate 10 g/ha): 4
- Plant response rating, Wheat (wheat; POSTEMERGENCE, Rate 50 g/ha): 5
- Plant response rating, Wheat (wheat; PREEMERGENCE, Rate 50 g/ha): 2
- Plant response rating, Sorghum (sorghum; PREEMERGENCE, 250 g/ha): 20
- Plant response rating (0 to 100), Sorghum (sorghum; PREEMERGENCE, Rate 4 g/ha): 0
- Plant response rating (0 to 100), Sorghum (sorghum; Rate 16 g/ha, PREEMERGENCE): 0
- Plant response rating, Sugar beet (sugar beet; PREEMERGENCE, 250 g/ha): 100
- Plant response rating (0 to 100), Sugar beet (sugar beet; PREEMERGENCE, Rate 4 g/ha): 10
- Plant response rating (0 to 100), Sugar beet (sugar beet; Rate 16 g/ha, PREEMERGENCE): 100

Source: patent US6358885B1, “Substituted phenylheterocyclic herbicides” (Mississippi State University, priority 1992, dated 2002)
